Assay results from ChEMBL document CHEMBL1909046, “DrugMatrix in vitro pharmacology data”.
Where a SMILES comes first, the peptide text is derived from it. Bridges are numbered along the chain shown (N, C = ends). [ ]: non-standard residue; d: D form. The star is where a group is joined. Ileψ(thiazoline)Cys = CC[C@H](C)[C@H](N)C1=N[C@H](C(=O)*)CS1; dOrn = NCCC[C@@H](N)C(=O)O

Tests used:
Estrogen receptor = target: T1, Estrogen receptor (Homo sapiens, UniProt P03372); conditions: sf9; note: in other assays of this panel Not Active means under 50% inhibition at 10 µM
T1 sequence (P03372 whole entry): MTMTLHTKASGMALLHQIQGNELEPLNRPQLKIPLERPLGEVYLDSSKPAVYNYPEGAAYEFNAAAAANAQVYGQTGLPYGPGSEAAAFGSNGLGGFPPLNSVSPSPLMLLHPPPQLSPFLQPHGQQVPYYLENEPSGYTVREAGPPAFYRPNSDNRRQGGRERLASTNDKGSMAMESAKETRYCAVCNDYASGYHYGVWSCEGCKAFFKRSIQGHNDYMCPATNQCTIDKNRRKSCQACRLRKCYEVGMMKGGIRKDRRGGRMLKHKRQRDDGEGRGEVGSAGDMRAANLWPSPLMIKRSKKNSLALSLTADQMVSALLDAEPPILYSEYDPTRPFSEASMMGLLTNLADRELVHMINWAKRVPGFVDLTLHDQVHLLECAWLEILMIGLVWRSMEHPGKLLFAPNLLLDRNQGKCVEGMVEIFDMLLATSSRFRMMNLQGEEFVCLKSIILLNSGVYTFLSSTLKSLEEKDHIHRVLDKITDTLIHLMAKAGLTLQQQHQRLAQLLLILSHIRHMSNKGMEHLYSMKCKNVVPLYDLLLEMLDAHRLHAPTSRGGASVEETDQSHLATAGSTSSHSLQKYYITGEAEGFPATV

[1] = target: Aldo-keto reductase family 1 member B1 (Rattus norvegicus, UniProt P07943); type: tissue-based, Lens of camera-type eye;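 note: inhibition of aldose reductase enzyme activity, measured with DL-glyceraldehyde as the substrate; in other assays of this panel Not Active means under 50% inhibition at 10 µM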
[2] = target: Beta-1 adrenergic receptor (Homo sapiens, UniProt P08588); test: DRUGMATRIX: Adrenergic beta1 radioligand binding (ligand: [125I] Cyanopindolol); type: cell membranes, CHO-K1, Membrane; conditions: cho-k1; Not Active = under 50% inhibition at 10 µM
Chain of Beta-1 adrenergic receptor (P08588 whole entry): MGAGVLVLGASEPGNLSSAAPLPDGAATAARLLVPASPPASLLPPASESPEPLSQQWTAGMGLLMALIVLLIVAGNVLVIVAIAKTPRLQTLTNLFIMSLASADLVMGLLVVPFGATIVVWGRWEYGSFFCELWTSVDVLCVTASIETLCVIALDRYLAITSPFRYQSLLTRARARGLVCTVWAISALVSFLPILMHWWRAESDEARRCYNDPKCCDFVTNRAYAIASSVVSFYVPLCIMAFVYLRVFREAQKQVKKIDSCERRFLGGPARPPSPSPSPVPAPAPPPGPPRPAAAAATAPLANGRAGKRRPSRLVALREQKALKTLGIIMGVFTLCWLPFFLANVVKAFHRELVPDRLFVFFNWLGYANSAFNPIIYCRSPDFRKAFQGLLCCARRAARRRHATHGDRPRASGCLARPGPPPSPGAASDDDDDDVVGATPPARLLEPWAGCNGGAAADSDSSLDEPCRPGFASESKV

[3] = target: T2, C-X-C chemokine receptor type 1 (Homo sapiens, UniProt P25024); note: in other assays of this panel Not Active means under 50% inhibition at 10 µM
T2 sequence (P25024 whole entry): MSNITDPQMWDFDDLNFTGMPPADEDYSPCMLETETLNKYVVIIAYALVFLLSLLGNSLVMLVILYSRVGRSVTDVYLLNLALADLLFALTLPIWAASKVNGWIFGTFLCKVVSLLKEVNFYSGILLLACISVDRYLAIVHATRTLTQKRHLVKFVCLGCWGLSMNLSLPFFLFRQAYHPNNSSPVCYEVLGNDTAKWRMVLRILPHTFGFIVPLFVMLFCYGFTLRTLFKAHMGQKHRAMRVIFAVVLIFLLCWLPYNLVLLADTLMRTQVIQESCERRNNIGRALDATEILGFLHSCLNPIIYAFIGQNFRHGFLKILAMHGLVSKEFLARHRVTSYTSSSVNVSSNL

[4] = target: T3, Receptor-type tyrosine-protein phosphatase C (Homo sapiens, UniProt P08575); parameters: species or system Escherichia coli;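 note: inhibition of CD45 enzyme activity measured using DiFMUP as substrate; in other assays of this panel Not Active means under 50% inhibition at 10 µM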
T3 sequence (P08575 whole entry): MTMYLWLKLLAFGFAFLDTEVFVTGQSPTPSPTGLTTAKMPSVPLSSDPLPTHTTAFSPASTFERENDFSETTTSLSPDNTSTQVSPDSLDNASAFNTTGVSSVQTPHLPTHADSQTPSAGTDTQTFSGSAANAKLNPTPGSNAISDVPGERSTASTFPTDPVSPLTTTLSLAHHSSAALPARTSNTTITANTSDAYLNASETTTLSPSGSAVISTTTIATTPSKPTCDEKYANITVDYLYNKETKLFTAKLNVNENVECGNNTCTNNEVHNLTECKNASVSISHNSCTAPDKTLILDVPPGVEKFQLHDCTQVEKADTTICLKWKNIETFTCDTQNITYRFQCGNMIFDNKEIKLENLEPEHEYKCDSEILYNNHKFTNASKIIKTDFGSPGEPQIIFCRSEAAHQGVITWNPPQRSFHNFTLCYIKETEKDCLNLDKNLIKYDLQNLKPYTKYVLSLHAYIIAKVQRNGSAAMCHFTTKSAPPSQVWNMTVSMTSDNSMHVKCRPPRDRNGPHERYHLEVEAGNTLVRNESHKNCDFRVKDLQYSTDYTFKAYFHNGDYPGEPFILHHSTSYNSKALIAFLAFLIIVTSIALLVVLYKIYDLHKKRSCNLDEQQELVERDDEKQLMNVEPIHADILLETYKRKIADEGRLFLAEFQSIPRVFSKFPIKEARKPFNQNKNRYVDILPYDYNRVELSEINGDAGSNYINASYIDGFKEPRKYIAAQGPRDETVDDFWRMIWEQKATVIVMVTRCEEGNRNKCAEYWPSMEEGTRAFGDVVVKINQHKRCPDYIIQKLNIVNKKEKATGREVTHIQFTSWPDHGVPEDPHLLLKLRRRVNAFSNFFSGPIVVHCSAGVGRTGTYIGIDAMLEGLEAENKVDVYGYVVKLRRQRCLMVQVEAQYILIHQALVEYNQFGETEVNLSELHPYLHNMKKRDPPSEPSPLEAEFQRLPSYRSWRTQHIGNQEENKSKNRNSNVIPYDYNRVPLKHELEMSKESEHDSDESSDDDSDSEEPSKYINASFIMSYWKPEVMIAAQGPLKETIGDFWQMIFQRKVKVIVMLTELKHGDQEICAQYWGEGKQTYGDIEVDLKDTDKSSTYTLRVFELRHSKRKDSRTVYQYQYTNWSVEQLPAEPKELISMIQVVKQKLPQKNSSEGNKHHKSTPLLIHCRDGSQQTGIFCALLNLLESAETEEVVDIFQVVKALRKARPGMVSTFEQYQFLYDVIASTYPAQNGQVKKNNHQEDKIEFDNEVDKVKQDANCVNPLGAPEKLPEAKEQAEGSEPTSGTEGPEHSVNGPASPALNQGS

[5] = DRUGMATRIX: Sigma2 radioligand binding (ligand: [3H] Ifenprodil); type: cell membranes, Rattus norvegicus, Wistar, Brain, Membrane; conditions: Not Active = under 50% inhibition at 10 µM
[6] = DRUGMATRIX: Glutamate, NMDA, Agonism radioligand binding (ligand: [3H] CGP-39653); type: cell membranes, Rattus norvegicus, Wistar, Cerebral cortex, Membrane; conditions: Not Active = under 50% inhibition at 10 µM
D(4) dopamine receptor = target: T4, D(4) dopamine receptor (Homo sapiens, UniProt P21917); test: DRUGMATRIX: Dopamine D4.2 radioligand binding (ligand: [3H] Spiperone); type: cell membranes, CHO-K1, Membrane; conditions: cho-k1; Not Active = under 50% inhibition at 10 µM
T4 sequence (P21917 whole entry): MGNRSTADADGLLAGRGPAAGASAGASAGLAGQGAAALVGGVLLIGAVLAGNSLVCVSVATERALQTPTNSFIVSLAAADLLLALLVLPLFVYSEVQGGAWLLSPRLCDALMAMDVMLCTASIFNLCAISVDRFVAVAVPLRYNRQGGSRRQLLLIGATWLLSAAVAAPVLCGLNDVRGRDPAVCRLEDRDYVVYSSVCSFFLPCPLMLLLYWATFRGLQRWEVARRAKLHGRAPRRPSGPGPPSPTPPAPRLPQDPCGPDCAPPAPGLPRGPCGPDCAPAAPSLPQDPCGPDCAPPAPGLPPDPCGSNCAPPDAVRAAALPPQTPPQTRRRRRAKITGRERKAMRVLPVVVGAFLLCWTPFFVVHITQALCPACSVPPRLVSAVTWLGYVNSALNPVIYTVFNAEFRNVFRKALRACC

C=C1C(=O)O[C@@H]2C3O[C@]3(C)CC/C=C(\C)CC[C@@H]12 (stereo not given in full)
Not Active: IC50 (Estrogen receptor) | IC50 [1] | IC50 [2] | IC50 [3] | IC50 [4] | IC50 [5] | Ki [5] | IC50 [6] | Ki [6] | IC50 (D(4) dopamine receptor)

O=c1cc(-c2ccccc2)oc2c1ccc1ccccc12 [ALPHA-NAPHTHOFLAVONE]
Not Active: IC50 (Estrogen receptor) | IC50 [1] | IC50 [2] | IC50 [3] | IC50 [4] | IC50 [5] | Ki [5] | IC50 [6] | Ki [6] | IC50 (D(4) dopamine receptor)

NCC[C@H](O)C(=O)N[C@@H]1C[C@H](N)[C@@H](O[C@H]2O[C@H](CN)[C@@H](O)[C@H](O)[C@H]2O)[C@H](O)[C@H]1O[C@H]1O[C@H](CO)[C@@H](O)[C@H](N)[C@H]1O [AMIKACIN]
Not Active: IC50 (Estrogen receptor) | IC50 [1] | IC50 [2] | IC50 [3] | IC50 [4] | IC50 [5] | Ki [5] | IC50 [6] | Ki [6] | IC50 (D(4) dopamine receptor)

CCOC(=O)OC(C)OC1=C(C(=O)Nc2ccccn2)N(C)S(=O)(=O)c2ccccc21 (stereo not given) [AMPIROXICAM]
Not Active: IC50 (Estrogen receptor) | IC50 [1] | IC50 [2] | IC50 [3] | IC50 [4] | IC50 [5] | Ki [5] | IC50 [6] | Ki [6] | IC50 (D(4) dopamine receptor)

N#C[C@H](O[C@@H]1O[C@H](CO[C@@H]2O[C@H](CO)[C@@H](O)[C@H](O)[C@H]2O)[C@@H](O)[C@H](O)[C@H]1O)c1ccccc1 [AMYGDALIN]
Not Active: IC50 (Estrogen receptor) | IC50 [1] | IC50 [2] | IC50 [3] | IC50 [4] | IC50 [5] | Ki [5] | IC50 [6] | Ki [6] | IC50 (D(4) dopamine receptor)

C=C1[C@@H]2CCC3[C@@](CC[C@@H]4[C@H](C(=O)O)C[C@@H](O[C@@H]5O[C@H](CO)[C@@H](OS(=O)(=O)[O-])[C@H](OS(=O)(=O)[O-])[C@H]5OC(=O)CC(C)C)C[C@@]34C)(C2)[C@@H]1O.[K+].[K+] (stereo not given in full) [ATRACTYLOSIDE]
Not Active: IC50 (Estrogen receptor) | IC50 [1] | IC50 [2] | IC50 [3] | IC50 [4] | IC50 [5] | Ki [5] | IC50 [6] | Ki [6] | IC50 (D(4) dopamine receptor)

Cn1cnc([N+](=O)[O-])c1Sc1ncnc2nc[nH]c12 [AZATHIOPRINE]
Not Active: IC50 (Estrogen receptor) | IC50 [1] | IC50 [2] | IC50 [3] | IC50 [4] | IC50 [5] | Ki [5] | IC50 [6] | Ki [6] | IC50 (D(4) dopamine receptor)

CC1(C)S[C@@H]2[C@H](NC(=O)[C@H](NC(=O)N3CCNC3=O)c3ccccc3)C(=O)N2[C@H]1C(=O)O [AZLOCILLIN]
Not Active: IC50 (Estrogen receptor) | IC50 [1] | IC50 [2] | IC50 [3] | IC50 [4] | IC50 [5] | Ki [5] | IC50 [6] | Ki [6] | IC50 (D(4) dopamine receptor)

CC[C@H](C)[C@H](N)C1=N[C@H](C(=O)N[C@@H](CC(C)C)C(=O)N[C@H](CCC(=O)O)C(=O)N[C@H](C(=O)N[C@H]2CCCCNC(=O)[C@H](CC(N)=O)NC(=O)[C@@H](CC(=O)O)NC(=O)[C@H](Cc3cnc[nH]3)NC(=O)[C@@H](Cc3ccccc3)NC(=O)[C@H]([C@@H](C)CC)NC(=O)[C@@H](CCCN)NC2=O)[C@@H](C)CC)CS1 [BACITRACIN] ({Ileψ(thiazoline)Cys}-L[dE]IK[dOrn]I[dF]H[dD]N; lactam 4-C)
Not Active: IC50 (Estrogen receptor) | IC50 [1] | IC50 [2] | IC50 [3] | IC50 [4] | IC50 [5] | Ki [5] | IC50 [6] | Ki [6] | IC50 (D(4) dopamine receptor)

OCc1ccccc1 [BENZYL ALCOHOL]
Not Active: IC50 (Estrogen receptor) | IC50 [1] | IC50 [2] | IC50 [3] | IC50 [4] | IC50 [5] | Ki [5] | IC50 [6] | Ki [6] | IC50 (D(4) dopamine receptor)

CC(C)(Oc1ccc(CCNC(=O)c2ccc(Cl)cc2)cc1)C(=O)O [BEZAFIBRATE]
Not Active: IC50 (Estrogen receptor) | IC50 [1] | IC50 [2] | IC50 [3] | IC50 [4] | IC50 [5] | Ki [5] | IC50 [6] | Ki [6] | IC50 (D(4) dopamine receptor)
